Laboratory results as given in the supplement of paper PMC10307832.

Columns and labels:
Assay in all cases: relative viability (nuclei count vs DMSO), 5 days (fraction); higher = more cells survive
Tivantinib + Tozasertib = compound: O=C1NC(=O)[C@@H](c2cn3c4c(cccc24)CCC3)[C@@H]1c1c[nH]c2ccccc12 [Tivantinib] + Cc1cc(Nc2cc(N3CCN(C)CC3)nc(Sc3ccc(NC(=O)C4CC4)cc3)n2)n[nH]1 [Tozasertib] (partner 0.1 µM)
Outline: (§1)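 The day after seeding in 1536-well plates, lung cancer cell lines were treated by pin tool with a single drug, or with a fixed anchor-drug dose together with five library-drug doses (not always all listed) in √10 steps. After 5 days, a combined fix-and-stain solution (final 0.05% Triton X-100, 1% formaldehyde, 1 ug/ml Hoechst) was added. Nuclei counted on 4× images gave relative viability as treated counts over vehicle counts, reported as the median of duplicate plates.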

Tivantinib + Olaparib = compound: O=C1NC(=O)[C@@H](c2cn3c4c(cccc24)CCC3)[C@@H]1c1c[nH]c2ccccc12 [Tivantinib] + O=C(c1cc(Cc2n[nH]c(=O)c3ccccc23)ccc1F)N1CCN(C(=O)C2CC2)CC1 [Olaparib] (partner 8 µM)
Outline: as §1

Tivantinib + Luminespib = compound: O=C1NC(=O)[C@@H](c2cn3c4c(cccc24)CCC3)[C@@H]1c1c[nH]c2ccccc12 [Tivantinib] + CCNC(=O)c1noc(-c2cc(C(C)C)c(O)cc2O)c1-c1ccc(CN2CCOCC2)cc1 [Luminespib] (partner 0.01 µM)
Outline: as §1

Crenolanib + Vorinostat = compound: CC1(COc2ccc3c(c2)ncn3-c2ccc3cccc(N4CCC(N)CC4)c3n2)COC1 [Crenolanib] + O=C(CCCCCCC(=O)Nc1ccccc1)NO [Vorinostat] (partner 1 µM)
Outline: as §1

Row | Cell Line | relative viability (Tivantinib + Tozasertib; first compound 0.01 µM) | relative viability (Tivantinib + Tozasertib; first compound 0.1 µM) | relative viability (Tivantinib + Tozasertib; first compound 0.3162 µM) | relative viability (Tivantinib + Olaparib; first compound 0.01 µM) | relative viability (Tivantinib + Olaparib; first compound 0.03162 µM) | relative viability (Tivantinib + Olaparib; first compound 0.1 µM) | relative viability (Tivantinib + Olaparib; first compound 0.3162 µM) | relative viability (Tivantinib + Luminespib; first compound 0.01 µM) | relative viability (Tivantinib + Luminespib; first compound 0.1 µM) | relative viability (Tivantinib + Luminespib; first compound 0.3162 µM) | relative viability (Crenolanib + Vorinostat; first compound 0.01 µM) | relative viability (Crenolanib + Vorinostat; first compound 0.03162 µM) | relative viability (Crenolanib + Vorinostat; first compound 0.1 µM) | relative viability (Crenolanib + Vorinostat; first compound 0.3162 µM) | relative viability (Crenolanib + Vorinostat; first compound 1 µM) | relative viability (Tivantinib + Tozasertib; first compound 0.03162 µM) | relative viability (Tivantinib + Luminespib; first compound 0.03162 µM)
1 | LK-2 | 0.177 | 0.199 | 0.191 | 0.903 | 0.639 | 0.73 | 0.687 | 0.217 | 0.208 | 0.197 | 0.326 | 0.259 | 0.273 | 0.354 | 0.311 |  | 
2 | 201T | 0.985 | 0.919 | 0.88 | 0.837 | 0.794 | 0.817 | 0.831 | 1.07 | 1.01 | 1.09 | 0.985 | 1 | 0.929 | 0.955 | 0.983 | 0.897 | 1.05
3 | NCI-H647 | 0.38 | 0.306 | 0.137 | 0.425 | 0.638 | 0.401 | 0.638 | 0.155 | 0.14 | 0.135 | 0.631 | 0.66 | 0.366 | 0.679 | 0.722 | 0.265 | 0.141
4 | HARA | 0.122 | 0.104 | 0.0992 | 1.02 | 0.49 | 0.735 | 0.732 | 0.909 | 0.738 | 0.689 | 0.568 | 0.499 | 0.532 | 0.626 | 0.502 | 0.12 | 0.592
5 | NCI-H650 | 0.857 | 0.802 | 0.585 | 0.41 | 0.432 | 0.356 | 0.34 | 0.895 | 0.739 | 0.432 | 0.408 | 0.42 | 0.468 | 0.368 | 0.417 | 0.61 | 0.798
6 | NCI-H2085 | 0.764 | 0.755 | 0.749 | 0.825 | 0.817 | 0.718 | 0.778 | 0.429 | 0.403 | 0.42 |  | 0.764 | 0.809 | 0.781 | 0.759 | 0.798 | 0.379
7 | NCI-H2347 | 0.71 | 0.53 | 0.624 | 0.556 | 0.593 | 0.583 | 0.552 | 0.726 | 0.285 | 0.316 | 0.629 | 0.807 | 0.383 | 0.707 | 0.645 | 0.6 | 0.35
8 | NCI-H1944 | 0.257 | 0.264 | 0.204 | 0.368 | 0.424 | 0.39 | 0.374 | 0.712 | 0.697 | 0.608 | 0.586 | 0.591 | 0.491 | 0.693 | 0.4 | 0.232 | 0.609
9 | NCI-H1793 | 0.427 | 0.353 | 0.222 | 0.982 | 0.761 | 0.819 | 0.45 | 0.186 | 0.156 | 0.203 | 0.8 | 0.741 | 0.698 | 0.863 | 0.698 | 0.329 | 0.22
10 | NCI-H596 | 1.05 | 0.929 | 0.799 | 0.734 | 0.661 | 0.655 | 0.6 | 1.01 | 1.08 | 0.935 | 0.586 | 0.546 | 0.616 | 0.592 | 0.594 | 0.819 | 1.01
11 | NCI-H520 | 0.471 | 0.395 | 0.434 | 0.347 | 0.339 | 0.291 | 0.37 | 0.212 | 0.209 | 0.198 | 0.703 | 0.641 | 0.733 | 0.765 | 0.652 | 0.494 | 0.218
12 | EKVX | 0.388 | 0.421 |  | 0.812 | 0.893 | 0.834 | 0.296 | 0.997 | 0.938 |  | 0.928 | 0.752 | 0.722 | 0.888 | 0.654 | 0.346 | 0.927
13 | NCI-H358 | 0.109 | 0.0902 | 0.0802 | 0.633 | 0.63 | 0.505 | 0.379 | 0.323 | 0.377 | 0.157 | 0.784 | 0.71 | 0.633 | 0.729 | 0.611 | 0.0982 | 0.332
14 | H3255 | 0.62 | 0.535 |  | 0.599 | 0.588 | 0.57 |  | 0.934 | 0.741 |  | 0.811 | 0.744 | 0.838 | 0.853 | 0.726 | 0.594 | 0.811
15 | NCI-H1650 | 0.411 | 0.357 | 0.434 | 0.832 | 0.817 | 0.678 | 0.624 | 0.203 | 0.203 | 0.192 | 0.454 | 0.516 | 0.582 | 0.812 | 0.676 | 0.467 | 0.191
16 | NCI-H1395 | 0.76 | 0.718 | 0.689 | 0.513 | 0.469 | 0.44 | 0.482 | 0.82 | 0.557 | 0.403 | 0.766 | 0.601 | 0.96 | 0.689 | 0.695 | 0.747 | 0.662
17 | NCI-H2228 |  | 0.221 | 0.214 | 0.43 | 0.815 | 0.678 | 0.587 |  | 0.168 | 0.125 | 0.721 | 0.768 | 0.633 | 0.687 | 0.871 | 0.356 | 0.152
18 | NCI-H2023 | 0.337 | 0.268 | 0.308 | 0.52 | 0.452 | 0.479 | 0.402 | 0.867 | 0.673 | 0.528 | 0.705 | 0.531 | 0.617 | 0.813 | 0.634 | 0.325 | 0.82
